The values below are quoted from earlier work in US20200386739A1, “TREATMENT OF METAHNOGENIC BACTERIA AS A THERAPY FOR CHRONIC LUNG DISEASE” (priority 2019, published 2020).

The subject of one data set is Methanogens. To be noted: cell wall lacks peptidoglycan.
Data set [1] concerns methane producing patients with IBS-C and chronic constipation.
In data set [2] the test system is guinea pig muscle strips from the ileum.
A further data set has as its system guinea pig ileum. To be noted: guinea pig ileum exposed to methane.
In another data set the test system is small intestine of dogs. To be noted: in vivo infusion of methane into the small intestine of dogs; scintigraphy.

Positions of bridges follow the written chain, without caps; N, C: chain ends. Non-standard residues stand in square brackets, D forms with d. Residues, ends and D or L forms follow the SMILES beside them. *: point of attachment. Ileψ(thiazoline)Cys = CC[C@H](C)[C@H](N)C1=N[C@H](C(=O)*)CS1; dOrn = NCCC[C@@H](N)C(=O)O

On to `O=C(N[C@H](CO)[C@H](O)c1ccc([N+](=O)[O-])cc1)C(Cl)Cl` [chloramphenicol], for which the susceptibility of methanogens result with Methanogens is on record as “susceptible”. As for `CO[C@H]1/C=C/O[C@@]2(C)Oc3c(C)c(O)c4c(O)c(c5c(nc6cc(C)ccn65)c4c3C2=O)NC(=O)/C(C)=C\C=C\[C@H](C)[C@H](O)[C@@H](C)[C@@H](O)[C@@H](C)[C@H](OC(C)=O)[C@@H]1C` [rifaximin], in data set [1], the “colonic transit time and constipation symptoms” value was “improvement”; the methane production entry is recorded as “reduced”. As to `CN1[C@@H]2CC[C@H]1C[C@@H](OC(=O)C(CO)c1ccccc1)C2` (some centres unmarked) [atropine], the “effect on the methane-induced increase of contractile amplitude” value in data set [2] was “reduced”. As to `NC1=N[C@H](O)[C@H]2[C@H]3O[C@]4(O)O[C@@H]([C@@H](O)[C@@]2(N1)[C@@H]4O)[C@]3(O)CO` [tetrodotoxin], in data set [2], the “effect on the methane-induced increase of contractile amplitude” value is given as “blocked”. With `C` [methane], in data set [2] (methane infusion, ileum muscle strips), the contractile amplitude result is given as “increased”. Also, in the data set on guinea pig ileum, the amplitude of contractions entry is recorded as “increased”, the “area under the curve (AUC) of intraluminal pressure” value is listed as “increased” and the peristaltic velocity result is reported as “significantly decreased”. Besides, in the data set on small intestine of dogs, the “slowing of small intestinal transit time” value is recorded as 59%. Regarding `CC[C@H](C)[C@H](N)C1=N[C@H](C(=O)N[C@@H](CC(C)C)C(=O)N[C@H](CCC(=O)O)C(=O)N[C@H](C(=O)N[C@H]2CCCCNC(=O)[C@H](CC(N)=O)NC(=O)[C@@H](CC(=O)O)NC(=O)[C@H](Cc3cnc[nH]3)NC(=O)[C@@H](Cc3ccccc3)NC(=O)[C@H]([C@@H](C)CC)NC(=O)[C@@H](CCCN)NC2=O)[C@@H](C)CC)CS1` [bacitracin] ({Ileψ(thiazoline)Cys}-L[dE]IK[dOrn]I[dF]H[dD]N; lactam 4-C), the susceptibility of methanogens result in the data set with Methanogens was “susceptible”.
